Tests used:
human Kv7.2+3 [1] = target: T1, human Kv7.2+3 (Homo sapiens, UniProt O43525+O43526); assay: Patch-clamp on HEK293 cell lines stably expressing human Kv7.2+3 channels; assay type: cell-based; conditions: current relative to baseline current defined as 100%
T1 construct: expressed in transfected cells; host or cells: HEK293
Source text: The effect obtained by these channel activators is described as a percentage increase in baseline current at a given concentration. The baseline current is defined as 100%, and an increase in current is expressed relative to this, i.e. an increase from 1 nA to 1.2 nA is reported as 120%.

human Kv7.2+3 [2] = target: T1, human Kv7.2+3; assay: FLIPR-based thallium (I) influx characterization of Kv7.2+3 modulators; assay type: cell-based; conditions: for EC50: HEK293 cells over-expressing human Kv7.2+3, Tl+ influx, BTC-AM, 50% of channel activity compared to retigabine control responses; for Efficacy: maximal response relative to the reference (retigabine) response
Method: This experiment determines the ability of a test compound to modulate the activity of Kv7.2+3 channels heterologously expressed in human HEK293 cells. The ability is determined relative to retigabine. The activity is determined using a standard thallium (I) sensitive assay, e.g. using a fluorometric method in a Fluorescent Image Plate Reader (FLIPR) as described below in more detail.
Full concentration/response curves are generated and EC50 values are calculated based on max values. EC50 values (Effective Concentration) represent the concentration of the test substance, at which 50% of the channel activity is obtained when compared to retigabine control responses. Maximal response determined relative to the reference (retigabine) response is calculated.
Human HEK293 cells over-expressing human Kv7.2+3 are grown in culture medium (DMEM supplemented with 10% foetal bovine serum), in polystyrene culture flasks ([…]) in a humidified atmosphere of 5% CO2 in air, at 37° C. Cell confluence should be 80-90% on day of plating. Cells are rinsed with 4 ml of PBS (phosphate buffered saline) and incubated 2 min with 1 ml of Trypsin-EDTA. After addition of 25 ml of culture medium cells are re-suspended by trituration with a 25 ml pipette.
The cells are seeded at a density of ˜3×10^6 cells/ml (25 μl/well) in blackwalled, clear bottom, 384-well plates pre-treated with 0.01 g/l poly-D-lysin (20 μl/well for ≧30 min). Plated cells were allowed to proliferate for 24 h before loading with dye.
BTC-AM (50 mg, Invitrogen) is added 25.5 μl DMSO. The BTC-AM stock solution (2 mM) is diluted to a final concentration of 2 μM in Cl^− free assay buffer (in mM: 140 Na^−-gluconate, 2.5 K^+-gluconate, 6 Ca2^+-gluconate, 1 Mg^2+ gluconate, 5 glucose, 10 HEPES, pH 7.3) containing 2 μM ouabain, 2 mM amaranth and 1 mM tartrazine. […]
After the loading period, the Tl^+-sensitive BTC fluorescence signal is measured over time using a FLIPR.
• Temperature: Room temp. • First addition: 12 μl test or control compound after 15 sec at a rate of 30 μl/sec and starting height of 20 μl • Second addition: 12 μl stimulus buffer (Cl^− free assay buffer supplemented with 1 mM Tl2SO4, 5 mM K2SO4 as well as the quenchers amaranth (2 mM) and tartrazine (1 mM)) is added after an additional 3 minutes at a rate of 30 μl/sec and starting height of 30 μl • Reading intervals: First sequence—3 sec×5, 2 sec×24 and 5 sec×25 • Second sequence—1 sec×5, 2 sec×24 and 5 sec×36 Addition plates (compound plate and stimulus plate) are placed in positions 2 and 3, respectively. […] Fluorescence obtained after stimulation is corrected for the mean basal fluorescence (in Cl^− free assay buffer). […]

Row | Structure (SMILES) | IK (%) conc. 0.3 μM, −30 mV, 20 ms (human Kv7.2+3 [1]) | EC50 (human Kv7.2+3 [2]) | Efficacy (human Kv7.2+3 [2]) | IK (%) conc. 0.03 μM, −30 mV, 20 ms (human Kv7.2+3 [1]; 0.03 μM)
1 | Cc1ccoc1C(=O)Nc1c(C)cc(N2CCCOCC2)nc1N1CC[C@@H](F)C1 [Compound 1.1, 3-Methyl-furan-2-carboxylic acid [2-((R)-3-fluoro-pyrrolidin-1-yl)-4-methyl-6-[1,4]oxazepan-4-yl-pyridin-3-yl]-amide] | 293 (n = 2) % | 1200 nM | 98% | 
2 | Cc1ccoc1C(=O)Nc1c(C)cc(N2CCOCC2)nc1N1CC[C@@H](F)C1 [Compound 1.2, 3-Methyl-furan-2-carboxylic acid [2-((R)-3-fluoro-pyrrolidin-1-yl)-4-methyl-6-morpholin-4-yl-pyridin-3-yl]-amide] | 428 (n = 5) % | 190 nM | 98% | 136%

— patent US20120238547A1, “2, 3, 6 - TRIAMINO SUBSTITUTED PYRIDINES AS KV7 (KCNQ) CHANNEL MODULATORS” (NEUROSEARCH A/S, priority 2009, published 2012)
